Measurements as given in patent US10501479B2, “Benzenesulfonyl-asymmetric ureas and medical uses thereof” (HELSINN HEALTHCARE SA, priority 2016, dated 2019).
Like-named read-outs stand apart in the source and are kept apart here.

Key:
[1] = target: T1, recombinant human ghrelin receptor (HEK293/GRLN) (Homo sapiens, UniProt Q92847); assay: Ghrelin inverse agonist potency (EC50) with IP-1 (IP-One HTRF) assay; assay type: cell-based; conditions: inverse agonist potency, IP-1 assay; read-out: EC50 (Activity)
T1 construct: expressed in transfected cells
Experimental: Evaluation of Ghrelin Inverse Agonist Potency (EC50) with IP-1 Assay:
HEK293 cells stably expressing recombinant human ghrelin receptor (HEK293/GRLN) were used in the IP-One HTRF assay. One day before the test, cells were seeded at a density of 1.5×10^4/well in a Matrigel® coated 384-well plate with 30 μL of complete Dulbecco's Modified Eagle's Medium and incubated at 37° C. in 5% CO2 for 18-22 hours. On the test day, the medium was removed by centrifugation at 600 rpm for 30 seconds, and 20 μL of stimulation buffer containing 1x tested compound was added with Bravo (Agilent technologies). The plate was then incubated at 37° C. 5% CO2 for 1 hour. After the incubation, 5 μL of IP1-d2 and 5 μL of Tb-Cryp were added to all wells using multidrop Combi(Thermo). After additional incubation at room temperature for 1 hour, the plates were read on Envision with 620 and 665 (Perkin Elmer).

[2] = target: T2, GHSR-1a (HEK293/GHSR1a cell line) (Homo sapiens, UniProt Q92847); assay: Ghrelin antagonist potency (IC50) with calcium FLIPR assay, ghrelin 10 nM; assay type: cell-based
T2 construct: expressed in transfected cells; host or cells: HEK293/GHSR1a cell line
Experimental: Evaluation of Ghrelin Agonist (EC50) and Antagonist Potency (IC50) with Calcium FLIPR Assay:
The intracellular calcium assay was carried out in a 384-well format FLIPR™ (Molecular Device) HEK293/GHSR1a cell line. Cells were seeded 24 hr prior to the experiments at an optimal density per well. Preincubation with selected calcium dye lasted for 30-60 min at room temperature or 37° C. Test compounds, dissolved in DMSO, were added at the appropriate time and incubated for 15 min followed by the addition of ghrelin with FlexStation or FLIPR. Relative fluorescence was monitored by the FLIPR™ Molecular Device. EC50 and IC50 values were estimated from dose-response data using GraphPad Prism software. To check for GHSR-1a agonism, the compound was added at t=20 sec. and the calcium response was followed for 2 minutes. To check for GHSR-1a antagonism, the compound and Ghrelin (10 nM) were added to the cells at t=20 sec. and the calcium response was measured for 2 minutes. The potency of the antagonist was calculated by its ability to reduce the ghrelin response. Dose-response curves were made for relevant antagonists.

[3] = ghrelin antagonist potency, read-out: IC50 (Activity)
[4] = HEK293/GHSR1a, ghrelin 10 nM, read-out: Activity IC50 (ghrelin antagonist potency)

T2 sequence (Q92847 whole entry): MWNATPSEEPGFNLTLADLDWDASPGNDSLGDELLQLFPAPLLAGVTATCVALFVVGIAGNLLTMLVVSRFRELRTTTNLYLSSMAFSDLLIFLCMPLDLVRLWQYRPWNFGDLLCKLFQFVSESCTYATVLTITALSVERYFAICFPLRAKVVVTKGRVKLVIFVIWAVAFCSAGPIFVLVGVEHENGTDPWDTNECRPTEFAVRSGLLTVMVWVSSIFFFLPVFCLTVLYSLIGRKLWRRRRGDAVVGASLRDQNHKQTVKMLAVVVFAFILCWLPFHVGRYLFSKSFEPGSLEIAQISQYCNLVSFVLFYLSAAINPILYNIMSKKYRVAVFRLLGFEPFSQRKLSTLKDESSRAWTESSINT
T1 sequence (Q92847 whole entry): as above

| Structure (SMILES) | EC50 [1] [nM] | IC50 [2, 3] [nM] | IC50 [2, 4] [nM] |
| --- | --- | --- | --- |
| C[C@H](NC(=O)Nc1ccc(S(=O)(=O)Nc2ccc(CC(C)(C)N)cc2)cc1)c1ccc(C#CC2CC2)c(Cl)c1Cl [H0907, (S)-N-(4-(2-amino-2-methylpropyl)phenyl)-4-(3-(1-(2,3-dichloro-4-(cyclopropylethynyl)phenyl)ethyl)ureido)benzenesulfonamide] | 1610 | 23.5 | – |
| COc1ccc([C@H](C)NC(=O)Nc2ccc(S(=O)(=O)Nc3ccc(CCN)cc3)cc2)c(Cl)c1Cl [H0951, (S)-N-(4-(2-aminoethyl)phenyl)-4-(3-(1-(2,3-dichloro-4-methoxyphenyl)ethyl)ureido) benzenesulfonamide] | 32.7 | 83.8 | – |
| Cc1ccc(CS(=O)(=O)c2ccc(NC(=O)N[C@@H](C)c3cccc(Cl)c3Cl)cc2)cc1 [H0964, (S)-1-(1-(2,3-dichlorophenyl)ethyl)-3-(4-((4-methylbenzyl)sulfonyl)phenyl)urea] | 2480 | 4170 | – |
| C[C@H](NC(=O)Nc1ccc(S(=O)(=O)Nc2ccc3[nH]ccc3c2)cc1)c1cccc(Cl)c1Cl [H0991, (S)-4-(3-(1-(2,3-dichlorophenyl)ethyl)ureido)-N-(1H-indol-5-yl)benzenesulfonamide] | 66.8 | 146 | – |
| CCNC(=O)Nc1ccc(S(=O)(=O)Nc2ccc(CC(C)(C)N)cc2)cc1 [H0994, N-(4-(2-amino-2-methylpropyl)phenyl)-4-(3-ethylureido)benzenesulfonamide] | 1430 | – | – |
| C[C@H](NC(=O)Nc1ccc(S(=O)(=O)Nc2ccc3c(c2)CCNC3)cc1)c1ccc(-c2cnccn2)c(Cl)c1Cl [H1006, (S)-4-(3-(1-(2,3-dichloro-4-(pyrazin-2-yl)phenyl)ethyl)ureido)-N-(1,2,3,4-tetrahydroisoquinolin-6-yl)benzenesulfonamide] | 36.9 | 72 | – |
| COc1ccc(CS(=O)(=O)c2ccc(NC(=O)N[C@@H](C)c3cccc(Cl)c3Cl)cc2)cc1 [H1083, (S)-1-(1-(2,3-dichlorophenyl)ethyl)-3-(4-((4-methoxybenzyl)sulfonyl)phenyl)urea] | 1180 | – | – |
| C[C@H](NC(=O)Nc1ccc(S(=O)(=O)Cc2ccc3c(c2)CCOC3)cc1)c1cccc(Cl)c1Cl [H1092, (S)-1-(1-(2,3-dichlorophenyl)ethyl)-3-(4-((isochroman-6-ylmethyl)sulfonyl)phenyl)urea] | 578 | – | – |
| COc1ccc(C(C)NC(=O)Nc2ccc(S(=O)(=O)Cc3ccc(CO)cc3)cc2)c2ccccc12 (stereo not shown) [H1140, 1-(4-((4-(hydroxymethyl)benzyl)sulfonyl)phenyl)-3-(1-(4-methoxynaphthalen-1-yl)ethyl)urea] | – | ≥ 30000 | – |
| COc1ccc(C(C)NC(=O)Nc2ccc(S(=O)(=O)Nc3ccc(CO)cc3)cc2)c2ccccc12 (stereo not shown) [H1145, N-(4-(hydroxymethyl)phenyl)-4-(3-(1-(4-methoxynaphthalen-1-yl)ethyl)ureido) benzenesulfonamide] | – | ≥ 30000 | – |
| C[C@H](NC(=O)N(O)c1ccc(S(=O)(=O)Nc2ccc3c(c2)CNC3)cc1)c1cccc(Cl)c1Cl [H1188, (S)-4-(3-(1-(2,3-dichlorophenyl)ethyl)-1-hydroxyureido)-N-(isoindolin-5-yl)benzenesulfonamide] | – | 539 | – |
| CC(NC(=O)N(O)c1ccc(S(=O)(=O)Nc2ccc3c(c2)CNC3)cc1)c1ccccc1 (stereo not shown) [H1199, 4-(1-hydroxy-3-(1-phenylethyl)ureido)-N-(isoindolin-5-yl)benzenesulfonamide] | – | 75.7 | – |
| O=C(NCc1cncs1)Nc1ccc(S(=O)(=O)Cc2ccc3c(c2)CNC3)cc1 [H1208, 1-(4-((isoindolin-5-ylmethyl)sulfonyl)phenyl)-3-(thiazol-5-ylmethyl)urea] | – | > 30000 | – |
| CC(NC(=O)N(C)c1ccc(S(=O)(=O)Cc2ccc3c(c2)CNC3)cc1)c1ccccc1 (stereo not shown) [H1213, 1-(4-((isoindolin-5-ylmethyl)sulfonyl)phenyl)-1-methyl-3-(1-phenylethyl)urea] | – | 4350 | – |
| O=C(NCc1cscn1)Nc1ccc(S(=O)(=O)Cc2ccc3c(c2)CNC3)cc1 [H1216, 1-(4-((isoindolin-5-ylmethyl)sulfonyl)phenyl)-3-(thiazol-4-ylmethyl)urea] | – | 8450 | – |
| C[C@H](NC(=O)Nc1ccc(S(=O)(=O)Cc2ccc(CO)cc2)cc1)c1ccccc1 [H1222, (S)-1-(4-((4-(hydroxymethyl)benzyl)sulfonyl)phenyl)-3-(1-phenylethyl)urea] | – | 3160 | – |

| Structure (SMILES) | EC50 [1] [nM] | IC50 [2, 3] [nM] | IC50 [2, 4] [nM] |
| --- | --- | --- | --- |
| C[C@H](NC(=O)Nc1ccc(S(=O)(=O)N2CCN(C)CC2)cc1)c1ccccc1 [H1225, (S)-1-(4-((4-methylpiperazin-1-yl)sulfonyl)phenyl)-3-(1-phenylethyl)urea] | – | 5900 | – |
| CN1Cc2ccc(CS(=O)(=O)c3ccc(NC(=O)NCC4CC4)cc3)cc2C1 [H1230, 1-(cyclopropylmethyl)-3-(4-(((2-methylisoindolin-5-yl)methyl)sulfonyl)phenyl)urea] | – | 6400 | – |
| CC(NC(=O)Nc1ccc(S(=O)(=O)C(C)(C)c2ccc3c(c2)CN(Cc2ccccc2)C3)cc1)c1ccccc1 (stereo not shown) [H1231, 1-(4-((2-(2-benzylisoindolin-5-yl)propan-2-yl)sulfonyl)phenyl)-3-(1-phenylethyl)urea] | – | > 30000 | – |
| C[C@H](NC(=O)Nc1ccc(S(=O)(=O)C2CCN(C)CC2)cc1)c1ccccc1 [H1237, (S)-1-(4-((1-methylpiperidin-4-yl)sulfonyl)phenyl)-3-(1-phenylethyl)urea] | – | > 30000 | – |
| C[C@H](NC(=O)Nc1ccc(S(=O)(=O)CC2CCN(C)CC2)cc1)c1ccccc1 [H1238, (S)-1-(4-(((1-methylpiperidin-4-yl)methyl)sulfonyl)phenyl)-3-(1-phenylethyl)urea] | – | > 30000 | – |
| C[C@H](NC(=O)Nc1ccc(S(=O)(=O)NC2CCN(C)CC2)cc1)c1ccccc1 [H1239, (S)-N-(1-methylpiperidin-4-yl)-4-(3-(1-phenylethyl)ureido) benzenesulfonamide] | – | > 30000 | – |
| CCc1ccc(Cl)c(C(=O)NC(=O)Nc2ccc(S(=O)(=O)Cc3ccc4c(c3)CNC4)cc2)c1 [H1248, 2-chloro-5-ethyl-N-((4-((isoindolin-5-ylmethyl)sulfonyl)phenyl)carbamoyl)benzamide] | – | 283 | – |
| O=C(NC(=O)c1cc(N2CCOCC2)ccc1Cl)Nc1ccc(S(=O)(=O)Nc2ccc3c(c2)CNC3)cc1 [H1250, 2-chloro-N-((4-((isoindolin-5-yl)sulfamoyl)phenyl)carbamoyl)-5-morpholinobenzamide] | – | 1370 | – |
| CCOc1ccc(Cl)c(C(=O)NC(=O)Nc2ccc(S(=O)(=O)Cc3ccc4c(c3)CNC4)cc2)c1 [H1251, 2-chloro-5-ethoxy-N-((4-((isoindolin-5-ylmethyl)sulfonyl)phenyl)carbamoyl)benzamide] | – | 89.6 | – |
| CCOc1ccc(Cl)c(C(=O)NC(=O)Nc2ccc(S(=O)(=O)Nc3ccc4c(c3)CNC4)cc2)c1 [H1252, 2-chloro-5-ethoxy-N-((4-(N-(isoindolin-5-yl)sulfamoyl)phenyl)carbamoyl) benzamide] | – | 440 | – |
| CCc1ccc(Cl)c(C(=O)NC(=O)Nc2ccc(S(=O)(=O)Cc3ccc(CC(C)(C)N)cc3)cc2)c1 [H1253, N-((4-((4-(2-amino-2-methylpropyl)benzyl)sulfonyl)phenyl)carbamoyl)-2-chloro-5-ethylbenzamide] | – | 86.8 | – |
| CCc1ccc(Cl)c(C(=O)NC(=O)Nc2ccc(S(=O)(=O)Nc3ccc(CC(C)(C)N)cc3)cc2)c1 [H1254, N-((4-(N-(4-(2-amino-2-methylpropyl)phenyl)sulfamoyl)phenyl)carbamoyl)-2-chloro-5-ethylbenzamide] | – | – | 17.2 |
| CCc1ccc(Cl)c(C(=O)NC(=O)Nc2ccc(S(=O)(=O)Nc3ccc4c(c3)CNCC4)cc2)c1 [H1263, 2-chloro-5-ethyl-N-((4-(N-(1,2,3,4-tetrahydroisoquinolin-7-yl)sulfamoyl)phenyl)carbamoyl) benzamide] | – | – | 246 |
| C[C@H](NC(=O)Nc1ccc2c(c1)C=C(c1ccc3c(c1)CNC3)S2(=O)=O)c1ccccc1 [H1270, (S)-1-(2-(isoindolin-5-yl)-1,1-dioxidobenzo[b]thiophen-5-yl)-3-(1-phenylethyl)urea] | – | – | 25.1 |
| COc1ccc(C(C)NC(=O)Nc2ccc3c(c2)CC(c2ccc4c(c2)CNC4)S3(=O)=O)cc1 (stereo not shown) [H1297, 1-(2-(isoindolin-5-yl)-1,1-dioxido-2,3-dihydrobenzo[b]thiophen-5-yl)-3-(1-(4-methoxyphenyl)ethyl)urea] | – | – | 23.1 |
| CC(c1ccccc1)N1Cc2cc(S(=O)(=O)Cc3ccc4c(c3)CNC4)ccc2NC1=O (stereo not shown) [H1395, 6-((isoindolin-5-ylmethyl)sulfonyl)-3-(1-phenylethyl)-3,4-dihydroquinazolin-2(1H)-one] | – | – | 68.9 |
